Test results: paper PMC8262883, “Human Gut Faecalibacterium prausnitzii Deploys a Highly Efficient Conserved System To Cross-Feed on β-Mannan-Derived Oligosaccharides” (mBio, 2021)

Molecular target: T1, FpMOBP (Faecalibacterium prausnitzii, UniProt D4KAW3)
T1 construct: gene FPR_17280; mature form without predicted signal peptide, C-terminal His6 tag (pNIC-CH), E. coli BL21 STAR; 48 kDa
T1 sequence (D4KAW3 26-470): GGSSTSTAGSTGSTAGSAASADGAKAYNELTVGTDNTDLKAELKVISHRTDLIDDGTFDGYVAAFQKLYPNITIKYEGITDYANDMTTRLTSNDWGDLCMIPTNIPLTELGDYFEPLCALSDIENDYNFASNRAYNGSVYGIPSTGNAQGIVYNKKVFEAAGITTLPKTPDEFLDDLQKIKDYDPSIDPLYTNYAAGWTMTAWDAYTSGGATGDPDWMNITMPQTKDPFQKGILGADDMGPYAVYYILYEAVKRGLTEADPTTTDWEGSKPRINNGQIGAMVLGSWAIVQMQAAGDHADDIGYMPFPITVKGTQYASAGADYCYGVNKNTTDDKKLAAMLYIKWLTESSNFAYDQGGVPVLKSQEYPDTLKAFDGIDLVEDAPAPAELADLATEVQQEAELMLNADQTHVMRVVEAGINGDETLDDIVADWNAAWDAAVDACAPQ
Assay: isothermal titration calorimetry
Format: binding
Settings: 25°C, 50 mM sodium phosphate pH 6.5; n = 0.8

SMILES: OC[C@H]1O[C@@H](O[C@H]2[C@H](O)[C@H](O)[C@H](O[C@H]3[C@H](O)[C@H](O)[C@H](O[C@H]4[C@H](O)[C@H](O)[C@H](O[C@H]5[C@H](O)[C@H](O)[C@H](O[C@H]6[C@H](O)[C@H](O)C(O)O[C@@H]6CO)O[C@@H]5CO)O[C@@H]4CO)O[C@@H]3CO)O[C@@H]2CO)[C@@H](O)[C@@H](O)[C@@H]1O (stereo partly shown) [M6, mannohexaose]
- Kd: 189 ± 1.4 µM
